Consider eleven compounds from ChEMBL document CHEMBL1201862, “PubChem BioAssay data set” (2004).

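Tested at 5 concentrations; 48 h exposure; 96-well plates; endpoints linearly interpolated, else capped at highest concentration. The concentration for 50% growth inhibition is given as GI50.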 Activity calls are given as the source filed them. Rule as the data show it: active = GI50 up to about 1.1 µM and inactive = higher.

Some test systems named below: A549; BT-549; CCRF-CEM; HCT-116; HL-60; HOP-62; IGROV-1; K562; KM12; M14; MOLT-4; OVCAR-4; OVCAR-8; RXF 393; SK-MEL-28; SNB-19; UACC-257; HOP-92; HT-29; SK-MEL-2.
What all share (test): inhibition of tumour cell growth, NCI panel, 48 h

Take `CN(C)c1ccc(/C=C2\Oc3cc(O)ccc3C2=O)cc1`: the GI50 is 88.1 µM (inactive) in the assay on A549; 65.8 µM (inactive) in the assay with BT-549; 69.5 µM (inactive) in the assay on CCRF-CEM; > 100 µM (inactive) in the assay with HCT-116; 40.5 µM (inactive) in the assay on HL-60; > 100 µM (inactive) with HOP-62. Besides, the GI50 is > 100 µM (inactive) in the assay on IGROV-1; 37.8 µM (inactive) with K562; 61.2 µM (inactive) in the assay with KM12; 75.7 µM (inactive) in the assay on M14; 60.8 µM (inactive) with MOLT-4; > 100 µM (inactive) in the assay with OVCAR-4. Moreover, the GI50 in the assay on OVCAR-8, in the assay on RXF 393, with SK-MEL-28, with SNB-19 and with UACC-257 was > 100 µM (inactive) in each case.
Take `COC1C(N(C)C)=C(c2ccccc2)C(=O)N2CCc3ccccc3C12` (stereo not drawn): the GI50 in the assay on A549, in the assay with CCRF-CEM, in the assay on HCT-116, with HL-60, in the assay on HOP-62 and in the assay with HOP-92 was > 100 µM (inactive) each time. Also, the GI50 was > 100 µM (inactive) with HT-29; > 100 µM (inactive) with IGROV-1; > 100 µM (inactive) in the assay with KM12; > 100 µM (inactive) in the assay with M14; 79.1 µM (inactive) with MOLT-4; > 100 µM (inactive) with OVCAR-4. Also, the GI50 in the assay with OVCAR-8, in the assay with RXF 393, in the assay on SK-MEL-28, in the assay with SK-MEL-2, in the assay with SNB-19 and in the assay with UACC-257 was > 100 µM (inactive) in each case.
Take `C[C@@H](c1ccccc1)C(CC#N)[C@H]1CCC[C@]1(O)C#Cc1ccc2c(c1)OCO2` (stereo partly drawn): the GI50 in the assay with A549 is 16.3 µM (inactive); with CCRF-CEM, 14.8 µM (inactive); in the assay with HL-60, 18.3 µM (inactive); in the assay with HOP-62, 16.8 µM (inactive); in the assay on HOP-92 it was 14 µM (inactive); with HT-29, 15.2 µM (inactive). Also, the GI50 is 14.3 µM (inactive) in the assay on IGROV-1; 18.1 µM (inactive) in the assay on K562; 16.7 µM (inactive) in the assay on KM12; 16.9 µM (inactive) with M14; 8.02 µM (inactive) in the assay on MOLT-4; 15.8 µM (inactive) in the assay with OVCAR-4. The GI50 in the assay with OVCAR-8 was 16.9 µM (inactive); in the assay on RXF 393, 14.4 µM (inactive); with SK-MEL-28 it was 16.1 µM (inactive); in the assay with SK-MEL-2, 17.6 µM (inactive); in the assay with SNB-19 it was 16.1 µM (inactive); in the assay with UACC-257 it was 18.2 µM (inactive).
Consider `Cn1ccnc1CCc1ccc(Cl)c(Cl)c1`, for which the GI50 in the assay on A549 is > 100 µM (inactive); in the assay with CCRF-CEM it was > 100 µM (inactive); in the assay with HCT-116, > 100 µM (inactive); in the assay on HL-60, 69 µM (inactive); in the assay on HOP-62, > 100 µM (inactive); in the assay on HOP-92, 43.3 µM (inactive). For the same compound, the GI50 in the assay on HT-29 was 86.7 µM (inactive); with IGROV-1 it was > 100 µM (inactive); in the assay with K562, 54.7 µM (inactive); in the assay on KM12 it was > 100 µM (inactive); in the assay with M14, > 100 µM (inactive); in the assay on MOLT-4, > 100 µM (inactive). In addition, the GI50 in the assay with OVCAR-4, in the assay on OVCAR-8, in the assay on RXF 393, in the assay with SK-MEL-28, in the assay with SK-MEL-2 and in the assay with UACC-257 was > 100 µM (inactive) in each case.
With `CCN(CC)CCSc1c2ccccc2nc2cc(NCC(=O)Nc3ccccc3-c3ccccc3NC(=O)CNc3ccc4c(SCCN(CC)CC)c5ccccc5nc4c3)ccc12`, the GI50 in the assay on A549 was > 100 µM (inactive); with CCRF-CEM, 24.9 µM (inactive); in the assay on HCT-116 it was > 78.3 µM (inactive); in the assay with HL-60 it was 20.3 µM (inactive); with HOP-62, > 100 µM (inactive); in the assay on HOP-92 it was > 100 µM (inactive). Moreover, the GI50 in the assay with HT-29 was > 100 µM (inactive); with IGROV-1 it was > 100 µM (inactive); with K562, 24 µM (inactive); with KM12, > 74.8 µM (inactive); in the assay with M14 it was > 100 µM (inactive); in the assay with MOLT-4, 23.2 µM (inactive). For the same compound, the GI50 is > 88.9 µM (inactive) with OVCAR-4; > 100 µM (inactive) in the assay on OVCAR-8; > 100 µM (inactive) with RXF 393; > 100 µM (inactive) in the assay on SK-MEL-28; > 100 µM (inactive) in the assay with SK-MEL-2; > 100 µM (inactive) with SNB-19. Moreover, the GI50 with UACC-257 is > 100 µM (inactive).
Consider `CCCC[C@@H](C)/C=C1\CN2CCC[C@H]2[C@@](C)(O)[C@@H]1O`, for which the GI50 was 43.7 µM (inactive) in the assay on A549; 12.3 µM (inactive) in the assay on CCRF-CEM; 1.92 µM (inactive) in the assay on HL-60; 52.1 µM (inactive) in the assay on HOP-62; 17.2 µM (inactive) in the assay with HOP-92; 43.2 µM (inactive) in the assay on HT-29. For the same compound, the GI50 in the assay with IGROV-1 is 51.6 µM (inactive); in the assay with K562, > 100 µM (inactive); in the assay on KM12, > 100 µM (inactive); in the assay with M14 it was 53 µM (inactive); in the assay with MOLT-4 it was > 100 µM (inactive); in the assay on OVCAR-4 it was 21.9 µM (inactive). Further, the GI50 in the assay with OVCAR-8 was 65.5 µM (inactive); in the assay on RXF 393 it was 0.0292 µM (active); in the assay on SK-MEL-28, > 100 µM (inactive); in the assay on SK-MEL-2, > 100 µM (inactive); in the assay on SNB-19, 58.9 µM (inactive); in the assay on UACC-257, > 100 µM (inactive).
As to `CNC(=S)N(C1CCCCC1)C1CCCCC1`, the GI50 in the assay with A549 was 56.9 µM (inactive); in the assay with CCRF-CEM it was 33.1 µM (inactive); with HCT-116 it was 54 µM (inactive); in the assay on HL-60, 27.4 µM (inactive); in the assay with HOP-62, > 100 µM (inactive); with HOP-92, 50.8 µM (inactive). For the same compound, the GI50 was 41.1 µM (inactive) in the assay on HT-29; > 100 µM (inactive) in the assay with IGROV-1; 29.9 µM (inactive) with K562; 55.8 µM (inactive) in the assay on KM12; > 100 µM (inactive) in the assay with M14; 37.3 µM (inactive) in the assay on MOLT-4. In addition, the GI50 was 90.6 µM (inactive) in the assay on OVCAR-4; > 100 µM (inactive) with OVCAR-8; > 100 µM (inactive) in the assay with RXF 393; > 100 µM (inactive) with SK-MEL-28; 76.9 µM (inactive) in the assay with SK-MEL-2; > 100 µM (inactive) in the assay with SNB-19. In the assay with UACC-257, the GI50 was 34.1 µM (inactive).
In the case of `CCOC(=O)c1nnsc1NC(=O)NCCCCCCn1c(=O)n(CCCCCCNC(=O)Nc2snnc2C(=O)OCC)c(=O)n(CCCCCCNC(=O)Nc2snnc2C(=O)OCC)c1=O`, the GI50 in the assay on A549 is > 100 µM (inactive); in the assay on BT-549, 33 µM (inactive); in the assay on CCRF-CEM, 38.5 µM (inactive); in the assay on HCT-116, 38.8 µM (inactive); with HOP-62 it was 25.4 µM (inactive); with HT-29, > 100 µM (inactive). For the same compound, the GI50 in the assay with IGROV-1 is 32.1 µM (inactive); with K562 it was 66.4 µM (inactive); with KM12, 93.3 µM (inactive); in the assay with M14, > 100 µM (inactive); with MOLT-4, 31.1 µM (inactive); in the assay with OVCAR-4, 80 µM (inactive). Also, the GI50 in the assay with OVCAR-8 was 35.8 µM (inactive); in the assay on RXF 393, 13.5 µM (inactive); with SK-MEL-2, > 100 µM (inactive); with SNB-19 it was 18.6 µM (inactive); in the assay with UACC-257 it was 85.3 µM (inactive).
Turning to `CN(C)c1ccc2c(=O)c3ccccc3oc2n1`, the GI50 was > 100 µM (inactive) in the assay with A549; > 100 µM (inactive) in the assay on CCRF-CEM; > 100 µM (inactive) in the assay on HL-60; 56.6 µM (inactive) in the assay on HOP-62; > 100 µM (inactive) in the assay on HOP-92; 93.1 µM (inactive) with IGROV-1. In addition, the GI50 in the assay with K562 is > 100 µM (inactive); with KM12, 69.7 µM (inactive); with M14, > 100 µM (inactive); in the assay on MOLT-4, > 100 µM (inactive); in the assay with OVCAR-4 it was > 100 µM (inactive); with OVCAR-8, > 100 µM (inactive). Also, the GI50 with RXF 393, in the assay on SK-MEL-28, in the assay on SK-MEL-2, with SNB-19 and with UACC-257 was > 100 µM (inactive) in each case.
For the compound `COc1cccc2c1C(=O)c1c(O)c3c(c(O)c1C2=O)CC(O)(C(C)=O)CC3OC1OC(COC(C)=O)C(OC(C)=O)C(OC(C)=O)C1OC(C)=O` (stereo not drawn), the GI50 is > 100 µM (inactive) in the assay with A549; 0.0276 µM (active) with CCRF-CEM; 55.8 µM (inactive) in the assay with HCT-116; 53.8 µM (inactive) in the assay with HL-60; 10.2 µM (inactive) in the assay on HOP-62; 0.515 µM (active) in the assay with HOP-92. The GI50 is 25.7 µM (inactive) in the assay on HT-29; 16.3 µM (inactive) in the assay with IGROV-1; 18.5 µM (inactive) in the assay with K562; 52.7 µM (inactive) in the assay on KM12; 43.8 µM (inactive) in the assay with M14; 12.8 µM (inactive) in the assay on MOLT-4. The GI50 was 18 µM (inactive) with OVCAR-4; 11.5 µM (inactive) in the assay on OVCAR-8; 0.269 µM (active) in the assay on RXF 393; 85.5 µM (inactive) in the assay on SK-MEL-28; 55.7 µM (inactive) with SK-MEL-2; 16 µM (inactive) in the assay with SNB-19. The GI50 with UACC-257 is < 0.01 µM (active).
Turning to `Clc1ccc(-c2nnc(C34CC5CC(CC(C5)C3)C4)o2)cc1`, the GI50 with A549, with CCRF-CEM, in the assay on HCT-116, in the assay on HL-60, in the assay on HOP-62 and in the assay with HOP-92 was > 100 µM (inactive) each time. For the same compound, the GI50 in the assay on HT-29, in the assay on IGROV-1, in the assay with K562, with M14, with MOLT-4 and in the assay on OVCAR-4 was > 100 µM (inactive) throughout. The GI50 in the assay on OVCAR-8, in the assay on RXF 393, in the assay on SK-MEL-28, with SK-MEL-2, in the assay with SNB-19 and in the assay with UACC-257 was > 100 µM (inactive) each time.
